Laboratory results: patent US10111885B2, “Compositions and therapeutic methods for the treatment of complement-associated diseases” (Resverlogix Corp., priority 2015, dated 2018)

What was measured:
[1] = system: Complement component C8 alpha chain; test: Plasma protein quantitation by LC-MRM/MS, ASSURE trial; assay type: in vivo, human; settings: week 26 vs. baseline
Description: (§1) The method can be used to determine the effect of compounds, including those in the present invention, on the levels of various analytes found in plasma.
(§2) Using mass spectrometric methods, including multiple reaction monitoring (MRM) mass spectrometry (MRM-MS), each sample is analyzed for the presence and amount of 43 different plasma proteins. The changes in values for each protein analyte are calculated versus the baseline measure, and statistically significant (p<0.05) and trending (0.10>p>0.05) values are reported (Table 9). Downregulation of expression of components of the complement cascade will result in reduced activity of the pathway and thus will constitute a positive result.

[2] = system: Complement C1r subcomponent; test: as above; assay type: in vivo, human; settings: week 26 vs. baseline
Description: as §1, §2

Complement C4-B = test: as above; assay type: in vivo, human; settings: week 26 vs. baseline
Description: as §1, §2

Complement factor H = test: as above; assay type: in vivo, human; settings: week 26 vs. baseline
Description: as §1, §2

Complement factor B [3] = test: as above; assay type: in vivo, human; settings: week 26 vs. baseline, trending p 0.06
Description: as §1, §2

Complement C5 = test: as above; assay type: in vivo, human; settings: week 26 vs. baseline
Description: as §1, §2

Complement component C9 = test: as above; assay type: in vivo, human; settings: week 26 vs. baseline
Description: as §1, §2

Complement C3 = test: as above; assay type: in vivo, human; settings: week 26 vs. baseline
Description: as §1, §2

[4] = system: Complement component C8 beta chain; test: as above; assay type: in vivo, human; settings: week 26 vs. baseline
Description: as §1, §2

Complement factor I = test: as above; assay type: in vivo, human; settings: week 26 vs. baseline
Description: as §1, §2

CD59 mRNA = test: Microarray analysis of ex-vivo treated human whole blood; assay type: cell-based; settings: 20 uM, 24 h
Description: (§3) In this example, RNA from human whole blood treated ex vivo was analyzed by microarray. The method can be used to determine the effect of compounds, including those in the present invention, on RNA levels (Table 6).
(§4) After obtaining informed consent, whole blood was collected from three healthy volunteers into BD Vacutainer Sodium Heparin tubes and samples were inverted 10 times. Blood samples (1 mL) were combined with 1 mL of RPMI containing 2 mM glutamine, 100 U/mL penicillin, 100 ug/mL streptomycin, 20% FBS and the compound of interest or vehicle (0.1% DMSO), followed by a 24 h incubation at 37° C. Treated samples were transferred to a PAXgene RNA tube (PreAnalytix/Qiagen), inverted 5 times and frozen. RNA was isolated with the PAXgene RNA kit according to manufacturer's instructions. Microarray analysis was performed by Asuragen (Austin, Tex.) using the Affymetrix Human […]. Shown in Table 6 is the mean of 3 independent samples (p<0.01). Downregulation of expression of components of the complement cascade will result in reduced activity of the pathway and thus will constitute a positive result. Upregulation of negative regulators or downregulation of positive regulators of the pathway will also result in reduced activity of the pathway and thus will constitute a positive result.

[5] = system: Complement component 3 (C3) mRNA; test: as above; assay type: cell-based; settings: 20 uM, 24 h
Description: as §3, §4

CD55 mRNA = test: as above; assay type: cell-based; settings: 20 uM, 24 h
Description: as §3, §4

C-reactive protein = test: SOMAscan protein quantitation in clinical samples, ASSURE trial; assay type: in vivo, human; settings: 200 mg/day, week 26 vs. baseline
Description: (§5) In this example, plasma samples from human subjects treated with placebo or RVX000222 are analyzed by the SOMAscan™ assay (SomaLogic). The method can be used to determine the effect of compounds, including those in the present invention, on the abundance of proteins, including complement components, in clinical samples. […] Using the SOMAscan™ technology, each sample is analyzed for the relative presence and amount of 1,310 different proteins. The changes in values for each protein analyte are calculated versus the baseline measure, and statistically significant (p<0.05) values are reported (Table 10). Downregulation of expression of components of the complement cascade will result in reduced activity of the pathway and thus will constitute a positive result.

Complement factor B [6] = test: as above; assay type: in vivo, human; settings: 200 mg/day, week 26 vs. baseline
Description: as §5

[7] = system: alternative complement pathway activity; test: Complement alternative pathway (AH50) assay on clinical serum samples; assay type: in vivo, human; settings: ASSURE trial, 26 weeks vs baseline
Description: The method can be used to determine the effect of compounds, including those in the present invention, on the activity of the classical and alternative complement system in clinical samples. […] Using the CH50 screening assay to detect the hemolysis of sheep erythrocytes sensitized by specific antibodies, the hemolytic activity of the complement system in serum samples from treated and untreated subjects was measured. Likewise, using specific conditions to activate only the alternative pathway (AH50), activity of the complement response was measured. The degree of complement activation was measured at baseline and terminally to determine if there were any changes in the function of the complement system following drug treatment (FIG. 7). Reduced function of the complement system constitutes a positive result.

## COc1cc(OC)c2c(=O)[nH]c(-c3cc(C)c(OCCO)c(C)c3)nc2c1 [RVX000222, 2-(4-(2-hydroxyethoxy)-3,5-dimethylphenyl)-5,7-dimethoxyquinazolin-4(3H)-one]
[1]
  Complement component C8 alpha chain Change from baseline: -120 ng/mL
  Complement component C8 alpha chain Percent Change from baseline: −8.6%
[2]
  Complement C1r subcomponent Change from baseline: -571 ng/mL
  Complement C1r subcomponent Percent Change from baseline: −3.6%
Complement C4-B
  Complement C4-B Change from baseline: −7,492 ng/mL
  Complement C4-B Percent Change from baseline: −4.3%
Complement factor H
  Complement factor H Change from baseline: −8,710 ng/mL
  Complement factor H Percent Change from baseline: −4.2%
Complement factor B [3]
  Complement factor B Change from baseline: −4,259 ng/mL
  Complement factor B Percent Change from baseline: −4.2%
Complement C5
  Complement C5 Change from baseline: −2,228 ng/mL
  Complement C5 Percent Change from baseline: −5.3%
Complement component C9
  Complement component C9 Change from baseline: −5,034 ng/mL
  Complement component C9 Percent Change from baseline: −13.8%
Complement C3
  Complement C3 Change from baseline: −34,105 ng/mL
  Complement C3 Percent Change from baseline: −3.6%
[4]
  Complement component C8 beta chain Change from baseline: -341 ng/mL
  Complement component C8 beta chain Percent Change from baseline: −3.9%
Complement factor I
  Complement factor I Change from baseline: −1,205 ng/mL
  Complement factor I Percent Change from baseline: −5.2%
CD59 mRNA
  CD59 % change in expression: 88%
[5]
  Complement component 3 (C3) % change in expression: −59%
CD55 mRNA
  CD55 % change in expression: 58%
C-reactive protein
  C-reactive protein (CRP) % change vs. baseline: −43.6%
Complement factor B [6]
  Complement factor B (CFB) % change vs. baseline: −6.8%
[7]
  complement activity in clinical samples, AHSO assay (FIG. 7A): reduces complement activity
